In ChEMBL document CHEMBL5291721, “A preclinical secondary pharmacology resource illuminates target-adverse drug reaction associations of marketed drugs” (Nat Commun, 2023) one finds AC50 data, which are given here for 15 compounds.

Some targets named below: Cannabinoid receptor 1 (Homo sapiens, UniProt P21554); Mu-type opioid receptor (Homo sapiens, UniProt P35372); Melanocortin receptor 4 (Homo sapiens, UniProt P32245).
Experiment [1] addresses Beta-2 adrenergic receptor (Homo sapiens, UniProt P07550). It is filed as functional, cell-based.
Experiment [2] has as its target T1, Androgen receptor (Rattus norvegicus, UniProt P15207).
T1 sequence (P15207 whole entry): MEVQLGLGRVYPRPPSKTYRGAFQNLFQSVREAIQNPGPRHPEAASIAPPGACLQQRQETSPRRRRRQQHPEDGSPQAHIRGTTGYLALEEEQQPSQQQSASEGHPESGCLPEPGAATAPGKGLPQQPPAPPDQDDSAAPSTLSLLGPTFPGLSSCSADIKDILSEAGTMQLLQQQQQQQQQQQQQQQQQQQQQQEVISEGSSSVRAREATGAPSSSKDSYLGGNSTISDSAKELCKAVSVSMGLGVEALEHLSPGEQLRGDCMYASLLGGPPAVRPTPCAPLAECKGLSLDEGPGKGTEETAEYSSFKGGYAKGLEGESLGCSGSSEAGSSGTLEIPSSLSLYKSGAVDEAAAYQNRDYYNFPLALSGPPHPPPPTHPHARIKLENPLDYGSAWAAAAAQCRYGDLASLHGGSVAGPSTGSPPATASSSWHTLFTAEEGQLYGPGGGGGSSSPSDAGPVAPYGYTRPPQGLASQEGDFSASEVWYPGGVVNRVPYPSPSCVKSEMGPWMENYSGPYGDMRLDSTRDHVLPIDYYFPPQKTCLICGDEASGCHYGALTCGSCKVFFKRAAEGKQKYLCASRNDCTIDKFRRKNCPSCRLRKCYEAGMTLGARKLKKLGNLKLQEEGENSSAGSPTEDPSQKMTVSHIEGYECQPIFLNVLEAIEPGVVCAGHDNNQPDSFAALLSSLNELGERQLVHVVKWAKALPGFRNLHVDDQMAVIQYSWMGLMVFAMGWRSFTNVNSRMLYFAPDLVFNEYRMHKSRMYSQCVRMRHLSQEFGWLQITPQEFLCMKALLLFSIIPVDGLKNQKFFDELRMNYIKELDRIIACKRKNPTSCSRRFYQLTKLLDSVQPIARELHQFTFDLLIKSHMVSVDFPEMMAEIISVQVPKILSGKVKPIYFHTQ
It counts as functional.

Experiment [3] concerns the target T2, Gamma-aminobutyric acid receptor subunit alpha-1/alpha-2/beta-2/gamma-2 (Homo sapiens, UniProt P14867+P18507+P47869+P47870). It counts as functional, cell-based.
For experiment [4], the target named is T3, Alpha-2A adrenergic receptor (Homo sapiens, UniProt P08913).
T3 sequence (P08913 whole entry): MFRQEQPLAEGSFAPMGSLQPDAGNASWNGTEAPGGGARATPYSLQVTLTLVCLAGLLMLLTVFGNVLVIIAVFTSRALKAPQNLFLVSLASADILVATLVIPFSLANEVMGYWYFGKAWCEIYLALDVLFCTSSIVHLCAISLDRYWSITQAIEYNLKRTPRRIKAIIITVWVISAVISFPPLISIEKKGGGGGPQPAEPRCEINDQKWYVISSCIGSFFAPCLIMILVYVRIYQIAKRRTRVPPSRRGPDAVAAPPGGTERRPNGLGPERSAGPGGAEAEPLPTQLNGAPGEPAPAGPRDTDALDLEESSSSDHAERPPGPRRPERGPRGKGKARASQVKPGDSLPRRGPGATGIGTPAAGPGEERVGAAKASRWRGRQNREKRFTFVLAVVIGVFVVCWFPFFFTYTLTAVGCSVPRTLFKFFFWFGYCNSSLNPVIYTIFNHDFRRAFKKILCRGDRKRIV

The target of another experiment is Histamine H1 receptor (Homo sapiens, UniProt P35367). It counts as functional, cell-based.
Sequence of Histamine H1 receptor (P35367 whole entry): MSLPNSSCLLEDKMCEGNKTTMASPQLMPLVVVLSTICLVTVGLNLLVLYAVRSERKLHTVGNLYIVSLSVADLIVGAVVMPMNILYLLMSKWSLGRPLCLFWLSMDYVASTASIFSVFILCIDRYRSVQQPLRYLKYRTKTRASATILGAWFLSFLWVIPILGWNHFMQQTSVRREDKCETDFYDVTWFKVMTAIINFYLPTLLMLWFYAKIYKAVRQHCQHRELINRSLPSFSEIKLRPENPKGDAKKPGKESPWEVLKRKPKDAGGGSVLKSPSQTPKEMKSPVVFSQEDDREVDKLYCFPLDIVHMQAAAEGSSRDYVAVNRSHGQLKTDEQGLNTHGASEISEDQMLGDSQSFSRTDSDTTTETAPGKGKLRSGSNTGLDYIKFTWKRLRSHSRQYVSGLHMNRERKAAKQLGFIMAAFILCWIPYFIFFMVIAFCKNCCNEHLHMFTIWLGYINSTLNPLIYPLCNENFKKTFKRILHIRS
Experiment [5] addresses T4, Alpha-1A adrenergic receptor (Homo sapiens, UniProt P35348).
T4 sequence (P35348 whole entry): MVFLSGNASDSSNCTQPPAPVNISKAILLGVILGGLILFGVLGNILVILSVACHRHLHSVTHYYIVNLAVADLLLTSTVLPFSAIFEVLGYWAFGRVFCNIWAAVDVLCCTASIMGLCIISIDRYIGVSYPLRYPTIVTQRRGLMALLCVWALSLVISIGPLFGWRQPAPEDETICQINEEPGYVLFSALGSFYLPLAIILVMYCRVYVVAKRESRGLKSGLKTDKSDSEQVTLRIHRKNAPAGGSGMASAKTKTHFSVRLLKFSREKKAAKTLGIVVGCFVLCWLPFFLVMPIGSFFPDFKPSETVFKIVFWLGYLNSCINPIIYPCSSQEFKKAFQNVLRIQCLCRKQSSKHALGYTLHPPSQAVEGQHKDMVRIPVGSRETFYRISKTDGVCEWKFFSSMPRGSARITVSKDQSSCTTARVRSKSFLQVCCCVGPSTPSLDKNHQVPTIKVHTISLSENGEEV

For experiment [6], the target named is T2, Gamma-aminobutyric acid receptor subunit alpha-1/alpha-2/beta-2/gamma-2. It is filed as functional, cell-based. The source holds these as a separate data set.
In experiment [7] the target is T1, Androgen receptor.
Experiment [8] addresses T1, Androgen receptor. It is filed as functional. This is another data set of the same source.
Experiment [9] deals with 5-hydroxytryptamine receptor 2A (Homo sapiens, UniProt P28223).
Sequence of 5-hydroxytryptamine receptor 2A (P28223 whole entry): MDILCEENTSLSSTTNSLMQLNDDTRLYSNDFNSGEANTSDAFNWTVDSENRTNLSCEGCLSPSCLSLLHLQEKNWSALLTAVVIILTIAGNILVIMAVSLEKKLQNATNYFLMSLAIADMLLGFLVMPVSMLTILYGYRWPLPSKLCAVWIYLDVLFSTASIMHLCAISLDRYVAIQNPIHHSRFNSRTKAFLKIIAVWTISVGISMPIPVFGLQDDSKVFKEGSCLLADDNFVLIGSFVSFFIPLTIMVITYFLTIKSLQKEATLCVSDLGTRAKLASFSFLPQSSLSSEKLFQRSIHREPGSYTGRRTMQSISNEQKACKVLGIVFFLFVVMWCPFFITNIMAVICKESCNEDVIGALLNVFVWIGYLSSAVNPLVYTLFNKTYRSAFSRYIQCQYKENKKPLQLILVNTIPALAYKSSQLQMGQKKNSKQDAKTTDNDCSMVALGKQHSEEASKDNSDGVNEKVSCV
In experiment [10] the target is Beta-3 adrenergic receptor (Homo sapiens, UniProt P13945).
Sequence of Beta-3 adrenergic receptor (P13945 whole entry): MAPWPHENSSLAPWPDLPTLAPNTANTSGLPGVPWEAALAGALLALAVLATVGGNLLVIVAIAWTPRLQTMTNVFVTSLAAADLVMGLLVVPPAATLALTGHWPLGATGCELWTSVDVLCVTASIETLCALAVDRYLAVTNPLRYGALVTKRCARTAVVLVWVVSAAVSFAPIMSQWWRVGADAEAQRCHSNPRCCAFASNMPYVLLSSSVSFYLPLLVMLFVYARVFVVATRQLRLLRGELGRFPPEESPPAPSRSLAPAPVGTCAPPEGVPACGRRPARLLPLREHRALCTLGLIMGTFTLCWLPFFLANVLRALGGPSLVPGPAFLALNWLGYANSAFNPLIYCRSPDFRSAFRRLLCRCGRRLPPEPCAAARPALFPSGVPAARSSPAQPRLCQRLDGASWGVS

Usually AC50 stands for the midpoint of the concentration-response curve, whichever way the signal moves. A low value points to activity at low concentration.

Where only a bound is given, the exact number is not on record here.
Further: assay procedure not described here.

T2 sequence (P14867 whole entry): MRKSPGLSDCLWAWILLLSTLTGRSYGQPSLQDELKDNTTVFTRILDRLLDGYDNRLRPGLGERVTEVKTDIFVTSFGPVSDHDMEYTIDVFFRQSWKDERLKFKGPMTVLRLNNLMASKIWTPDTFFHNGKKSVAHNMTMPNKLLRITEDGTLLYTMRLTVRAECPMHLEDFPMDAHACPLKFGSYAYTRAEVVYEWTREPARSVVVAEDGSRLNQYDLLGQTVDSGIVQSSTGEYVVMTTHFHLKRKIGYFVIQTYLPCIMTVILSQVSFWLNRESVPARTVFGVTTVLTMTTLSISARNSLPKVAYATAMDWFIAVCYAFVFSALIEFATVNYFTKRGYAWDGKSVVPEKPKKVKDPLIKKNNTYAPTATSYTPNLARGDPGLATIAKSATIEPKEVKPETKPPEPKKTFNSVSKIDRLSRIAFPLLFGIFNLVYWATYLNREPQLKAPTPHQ
T2 sequence (P47870 whole entry): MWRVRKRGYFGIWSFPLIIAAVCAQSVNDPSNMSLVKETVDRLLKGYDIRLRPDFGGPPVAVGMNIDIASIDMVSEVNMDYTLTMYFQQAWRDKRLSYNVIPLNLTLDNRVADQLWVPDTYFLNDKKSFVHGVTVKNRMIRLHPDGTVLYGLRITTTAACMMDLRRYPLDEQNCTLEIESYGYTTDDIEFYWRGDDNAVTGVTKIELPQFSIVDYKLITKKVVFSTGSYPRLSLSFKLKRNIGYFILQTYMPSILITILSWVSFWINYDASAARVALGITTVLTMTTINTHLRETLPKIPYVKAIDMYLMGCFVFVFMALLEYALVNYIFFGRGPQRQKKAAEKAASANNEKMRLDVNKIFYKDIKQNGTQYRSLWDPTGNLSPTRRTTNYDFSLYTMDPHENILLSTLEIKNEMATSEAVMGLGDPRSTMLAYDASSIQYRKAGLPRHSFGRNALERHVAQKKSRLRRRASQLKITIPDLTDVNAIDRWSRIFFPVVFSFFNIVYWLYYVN
T2 sequence (P18507 whole entry): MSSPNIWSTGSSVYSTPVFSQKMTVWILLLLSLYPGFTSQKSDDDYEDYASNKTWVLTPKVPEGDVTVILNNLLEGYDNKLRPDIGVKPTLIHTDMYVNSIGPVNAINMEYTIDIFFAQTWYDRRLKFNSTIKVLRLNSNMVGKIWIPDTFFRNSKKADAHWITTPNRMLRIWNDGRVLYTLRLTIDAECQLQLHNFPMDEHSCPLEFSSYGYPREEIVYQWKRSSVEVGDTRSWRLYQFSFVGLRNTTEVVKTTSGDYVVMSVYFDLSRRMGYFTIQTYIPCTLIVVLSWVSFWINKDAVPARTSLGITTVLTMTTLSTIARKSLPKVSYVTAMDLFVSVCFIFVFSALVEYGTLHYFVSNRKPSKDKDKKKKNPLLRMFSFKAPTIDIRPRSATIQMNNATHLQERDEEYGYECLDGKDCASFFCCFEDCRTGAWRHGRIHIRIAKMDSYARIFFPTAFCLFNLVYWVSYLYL
T2 sequence (P47869 whole entry): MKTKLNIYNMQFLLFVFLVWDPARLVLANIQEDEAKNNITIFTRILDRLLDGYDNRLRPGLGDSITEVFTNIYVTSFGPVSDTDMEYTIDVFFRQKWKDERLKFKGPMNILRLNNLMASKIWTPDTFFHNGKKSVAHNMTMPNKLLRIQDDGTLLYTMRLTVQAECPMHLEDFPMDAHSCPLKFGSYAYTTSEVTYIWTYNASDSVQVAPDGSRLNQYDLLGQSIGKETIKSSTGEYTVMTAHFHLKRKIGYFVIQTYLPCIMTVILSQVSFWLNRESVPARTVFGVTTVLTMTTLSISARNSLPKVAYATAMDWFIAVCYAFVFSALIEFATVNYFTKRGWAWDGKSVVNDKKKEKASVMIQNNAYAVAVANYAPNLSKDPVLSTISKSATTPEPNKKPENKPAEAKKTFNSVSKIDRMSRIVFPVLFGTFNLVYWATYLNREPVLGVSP
Sequence of Mu-type opioid receptor (P35372 whole entry): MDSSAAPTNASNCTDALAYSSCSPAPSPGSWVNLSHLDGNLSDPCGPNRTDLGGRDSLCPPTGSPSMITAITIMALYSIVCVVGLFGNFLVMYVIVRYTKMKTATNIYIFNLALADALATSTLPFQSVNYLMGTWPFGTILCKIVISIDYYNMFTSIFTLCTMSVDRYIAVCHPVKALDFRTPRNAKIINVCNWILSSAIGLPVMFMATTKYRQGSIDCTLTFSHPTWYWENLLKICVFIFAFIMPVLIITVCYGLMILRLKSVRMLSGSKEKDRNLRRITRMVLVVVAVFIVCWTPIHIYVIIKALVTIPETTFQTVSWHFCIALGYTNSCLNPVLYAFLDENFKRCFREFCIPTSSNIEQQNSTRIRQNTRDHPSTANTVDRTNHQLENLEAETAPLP
Sequence of Beta-2 adrenergic receptor (P07550 whole entry): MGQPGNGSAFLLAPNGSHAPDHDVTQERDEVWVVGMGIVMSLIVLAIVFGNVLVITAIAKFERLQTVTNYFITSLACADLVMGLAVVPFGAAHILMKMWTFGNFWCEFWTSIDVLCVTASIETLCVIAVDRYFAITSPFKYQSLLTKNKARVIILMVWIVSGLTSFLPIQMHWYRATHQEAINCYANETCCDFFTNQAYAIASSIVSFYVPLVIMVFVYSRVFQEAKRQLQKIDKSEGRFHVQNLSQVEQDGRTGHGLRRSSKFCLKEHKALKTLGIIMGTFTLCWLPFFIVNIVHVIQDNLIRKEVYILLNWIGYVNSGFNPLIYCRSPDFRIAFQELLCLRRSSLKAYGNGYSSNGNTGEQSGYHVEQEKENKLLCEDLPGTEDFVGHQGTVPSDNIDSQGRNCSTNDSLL
Sequence of Melanocortin receptor 4 (P32245 whole entry): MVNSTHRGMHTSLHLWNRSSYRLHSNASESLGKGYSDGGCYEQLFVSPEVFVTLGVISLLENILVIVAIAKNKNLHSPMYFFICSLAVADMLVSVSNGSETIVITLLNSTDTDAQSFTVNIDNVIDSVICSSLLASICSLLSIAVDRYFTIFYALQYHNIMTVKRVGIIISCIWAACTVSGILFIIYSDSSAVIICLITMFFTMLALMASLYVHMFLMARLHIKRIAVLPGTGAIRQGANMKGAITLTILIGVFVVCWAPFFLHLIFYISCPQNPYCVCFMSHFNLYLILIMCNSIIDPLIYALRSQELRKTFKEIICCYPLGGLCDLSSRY
Sequence of Cannabinoid receptor 1 (P21554 whole entry): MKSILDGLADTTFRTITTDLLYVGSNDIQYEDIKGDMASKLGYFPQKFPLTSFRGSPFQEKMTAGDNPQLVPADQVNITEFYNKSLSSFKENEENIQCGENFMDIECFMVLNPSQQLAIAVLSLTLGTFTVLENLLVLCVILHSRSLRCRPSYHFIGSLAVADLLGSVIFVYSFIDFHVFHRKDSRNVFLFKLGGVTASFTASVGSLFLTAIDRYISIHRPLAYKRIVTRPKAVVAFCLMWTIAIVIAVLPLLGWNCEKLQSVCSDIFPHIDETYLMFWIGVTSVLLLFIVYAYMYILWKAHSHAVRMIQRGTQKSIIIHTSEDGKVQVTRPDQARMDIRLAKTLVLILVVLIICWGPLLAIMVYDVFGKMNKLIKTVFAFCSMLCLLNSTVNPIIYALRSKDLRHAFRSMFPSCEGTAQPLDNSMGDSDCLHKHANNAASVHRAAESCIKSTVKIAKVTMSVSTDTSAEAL

Turning to `CCN(CC)C(=O)C1CN2CCc3cc(OC)c(OC)cc3C2CC1OC(C)=O` (stereo not given) [BENZQUINAMIDE], the AC50 was > 30 µM in experiment [1]; > 30 µM at Androgen receptor [2]; > 30 µM in [3]; 3.03 µM in experiment [4]; > 10 µM on Cannabinoid receptor 1; > 30 µM at Histamine H1 receptor. In addition, the AC50 on Mu-type opioid receptor was > 30 µM; in experiment [5], > 10 µM; in [6], > 30 µM; on Androgen receptor [7], > 10 µM; at Androgen receptor [8] it was > 30 µM; in experiment [9], 0.588 µM. Further, the AC50 on Melanocortin receptor 4 is > 10 µM.

Turning to `CCCC(C)(COC(N)=O)COC(=O)NC(C)C` (stereo not given) [CARISOPRODOL], the AC50 in experiment [1] is > 30 µM; in experiment [4], > 10 µM; at Cannabinoid receptor 1, > 10 µM; on Histamine H1 receptor, > 30 µM; in experiment [10], > 30 µM; at Mu-type opioid receptor it was > 30 µM. For the same compound, the concentration at half-maximal activity (AC50) is 13.3 µM in [5], > 10 µM in experiment [9] and > 30 µM on Melanocortin receptor 4.

Regarding `COCCOC(=O)C1=C(C)NC(C)=C(C(=O)OC/C=C/c2ccccc2)C1c1cccc([N+](=O)[O-])c1` (stereo not given) [CILNIDIPINE], the AC50 (in experiment [1]; in experiment [3]; at Histamine H1 receptor; in experiment [6]) was > 30 µM in each case.

Turning to `O=C(O)c1ccccc1Nc1cccc(C(F)(F)F)c1` [FLUFENAMIC ACID], the AC50 was > 30 µM in experiment [1]; > 10 µM at Cannabinoid receptor 1; > 30 µM in experiment [10]; > 30 µM at Mu-type opioid receptor; 1 µM in experiment [5]; > 30 µM at Androgen receptor [7]. For the same compound, the concentration at half-maximal activity (AC50) is 0.0771 µM in [9] and > 30 µM at Melanocortin receptor 4.

Consider `CC1(C)C(/C=C/C=C/C=C/C=C2\N(CCCCS(=O)(=O)O)c3ccc4ccccc4c3C2(C)C)=[N+](CCCCS(=O)(=O)[O-])c2ccc3ccccc3c21` [INDOCYANINE GREEN ACID FORM], for which the concentration at half-maximal activity (AC50) is > 30 µM in experiment [1]; > 30 µM at Androgen receptor [2]; > 30 µM at Histamine H1 receptor; > 30 µM in experiment [6]; 6.8 µM on Androgen receptor [8].

On to `CCCC[C@H](C)C[C@H](O)/C=C/[C@H]1[C@H](O)CC(=O)[C@@H]1CCCC/C=C/C(=O)O` [LIMAPROST], for which the AC50 (in [1]; on Androgen receptor [2]; in experiment [3]; on Histamine H1 receptor; in experiment [6]) was > 30 µM each time.

With `CC#CCn1c(N2CCC[C@@H](N)C2)nc2c1c(=O)n(Cc1nc(C)c3ccccc3n1)c(=O)n2C` [LINAGLIPTIN], the AC50 in [4] is > 10 µM; on Cannabinoid receptor 1 it was > 10 µM; in experiment [10], > 30 µM; on Mu-type opioid receptor, > 30 µM; on Androgen receptor [7], > 30 µM; in experiment [9], > 10 µM. Moreover, at Melanocortin receptor 4, half-maximal activity (AC50) was put at 41.8 µM.

As for `Cc1ccc(NC(=O)C2(c3ccc4c(c3)OC(F)(F)O4)CC2)nc1-c1cccc(C(=O)O)c1` [LUMACAFTOR], the half-maximal activity concentration (AC50) (in experiment [1]; at Androgen receptor [2]; in experiment [3]; on Histamine H1 receptor) was > 30 µM in each case.

As for `CCOC(=O)Nc1ccc2c(c1)N(C(=O)CCN1CCOCC1)c1ccccc1S2` [MORICIZINE], the concentration at half-maximal activity (AC50) (in experiment [1]; on Androgen receptor [2]; in experiment [3]; at Histamine H1 receptor; on Androgen receptor [8]) was > 30 µM throughout.

With `O=C1Nc2ccc(Cl)cc2C(c2ccccc2)=NC1O` (stereo not given) [OXAZEPAM], the AC50 in [1] was > 30 µM; in experiment [4] it was > 10 µM; at Cannabinoid receptor 1, > 10 µM; at Histamine H1 receptor, > 30 µM; in experiment [10], > 30 µM; at Mu-type opioid receptor, > 10 µM. For the same compound, the concentration at half-maximal activity (AC50) in [9] is > 10 µM; at Melanocortin receptor 4, > 30 µM.

As for `Cc1ccc(=O)n(-c2ccccc2)c1` [PIRFENIDONE], the half-maximal activity concentration (AC50) in experiment [1] was > 30 µM; in [3] it was > 30 µM; on Histamine H1 receptor, > 30 µM; at Mu-type opioid receptor, > 30 µM; in [5], > 10 µM; in [6] it was > 30 µM. Further, the AC50 in experiment [9] is > 10 µM.

With `Cc1ccc2c(-c3ccccc3)nc(=O)n(C(C)C)c2c1` [PROQUAZONE], the AC50 in experiment [1] is > 30 µM; on Androgen receptor [2] it was 15 µM; in experiment [3], > 30 µM; at Histamine H1 receptor, > 30 µM; in experiment [6] it was > 30 µM.

For the compound `CN1CCN(c2c(F)cc3c(=O)c(C(=O)O)cn4c3c2SCC4)CC1` [RUFLOXACIN], the AC50 (in [1]; in [3]; on Histamine H1 receptor; in experiment [6]) was > 30 µM each time.

For the compound `CN1c2ccccc2C(NCCCCCCC(=O)O)c2ccc(Cl)cc2S1(=O)=O` (stereo not given) [TIANEPTINE], the AC50 (in experiment [1]; in [3]; on Histamine H1 receptor; at Mu-type opioid receptor; in experiment [6]) was > 30 µM in each case.

Turning to `N#C[C@@H]1CCCN1C(=O)CNC12CC3CC(CC(O)(C3)C1)C2` [VILDAGLIPTIN], the AC50 in [4] is > 10 µM; on Cannabinoid receptor 1, > 30 µM; at Mu-type opioid receptor, > 10 µM; at Androgen receptor [7] it was > 30 µM; in experiment [9], > 10 µM; at Melanocortin receptor 4, > 30 µM.
